Article PMC5686178, “Antimicrobial peptides in frog poisons constitute a molecular toxin delivery system against predators” (Nature Communications, 2017)
Where a SMILES comes first, the peptide text is derived from it. Where no end group is shown, it is not given here. [ ]: non-standard residue; d: D form. sY = N[C@@H](Cc1ccc(OS(=O)(=O)O)cc1)C(=O)O; pGlu = O=C1CC[C@@H](C(=O)O)N1

What was measured:
other vertebrates = conditions: intravenous, ref [9],[21],[22], cited from earlier work
Caco-2 monolayers [1] = assay: Scanning electron microscopy of Caco-2 monolayers; assay type: cell-based, Human; conditions: fixation 5 min after administration
Protocol: Caco-2 cells were seeded on glass coverslips that were coated with rat tail collagen 1 (Sigma-Aldrich) the day before. The effect of four treatments (100 µM CPF, 100 µM caerulein, 100 µM CPF + caerulein, and a negative control) on differentiated Caco-2 monolayers was visualized. Chemical fixation was performed in 12-well culture plates 5 min after peptide administration (700 µl of solution in all treatments). For fixation, plate wells were filled with 1 ml 2,5% glutaraldehyde in 0.05 M sodium cacodylate buffer (pH 7.4; 37 °C) for 20 min, and subsequently washed twice with the same buffer. Postfixation was performed with 1% osmium tetroxide for 30 min, followed by three rinses with double-distilled water. Dehydration was carried out using a graded hexylene glycol series: 30; 50; 70; and 90%, taking 15 min for each step. Cells were rinsed three times for 10 min with 100% hexylene glycol, and then two more times for 10 min with 100% ethanol. Critical-point drying of coverslips was done using a Balzers union CPD020. Dried coverslips were mounted on carbon-coated stubs with double-sided conductive tape. Gold coating happened with a Jeol 1200JFC fine coater, after which coverslips were examined with a Jeol JSM-840 scanning electron microscope operating at 12 kV.

Caco-2 monolayers [2] = assay: Transepithelial toxin passage across Caco-2 monolayers (ELISA); conditions: 60 min
[3] = ref [8],[23]; cited from earlier work
Description: As the main model for our study, we used a peptide pair composed of the systemic toxin caerulein, and the AMP caerulein precursor fragment-3 (CPF), both of which are key constituents of the skin secretion of the frog Xenopus laevis [18]–[20] (Fig. 1b). Caerulein is a potent ligand of cholecystokinin receptors expressed in the vertebrate intestine, pancreas, and brain[9], and at sufficiently high concentrations, may induce nausea, hypotension, intestinal cramps, vomiting, and diarrhea[9],[21],[22]. Even in the intestine, the target receptors are only accessible by means of epithelial absorption ...

EpiOral 3D tissues = assay: Transepithelial toxin passage across EpiOral multilayered oral epithelial model (ELISA); assay type: in vitro ADME; conditions: 8-11 stacked cell layers, 60 min, n = 8, vs caerulein alone
[4] = Caco-2 monolayer, apical to basolateral, 20 nmol caerulein + 20 nmol CPF (100 µM both) apical, ELISA, n = 9

With CSCC[C@H](NC(=O)[C@H](Cc1c[nH]c2ccccc12)NC(=O)CNC(=O)[C@@H](NC(=O)[C@H](Cc1ccc(OS(=O)(=O)O)cc1)NC(=O)[C@H](CC(=O)O)NC(=O)[C@H](CCC(N)=O)NC(=O)[C@@H]1CCC(=O)N1)[C@@H](C)O)C(=O)N[C@@H](CC(=O)O)C(=O)N[C@@H](Cc1ccccc1)C(N)=O [caerulein] ([pGlu]QD[sY]TGWMDF-NH2) as the compound, how does the “Intravenously injected dose that caused severe sickness, molar” value (other vertebrates; converted from 1 μg/kg BW) read?
Its value is 0.74 pmol/g BW.

And the “Intravenously injected dose that caused severe sickness” value (other vertebrates)?
Its value is 1 μg/kg BW.

And the “Damage to Caco-2 monolayers by SEM, toxin alone” value (Caco-2 monolayers [1]; 100 µM caerulein)?
Its value is “does not damage Caco-2 monolayers”.

What about the “Transepithelial passage of caerulein, % of applied dose at basolateral side” value (Caco-2 monolayers [2]; Caco-2 monolayer on collagen-coated transwell 0.4 µm, apical to basolateral, caerulein alone 100 µM (20 nmol) apical, apical 200 µL / basolateral 1000 µL, ELISA, n = 9) of the same compound?
Its value is 0.3 – 1%.

What about the “Transepithelial passage of caerulein, % of applied dose at basolateral side, CPF co-administered” value (Caco-2 monolayers [2]; [4]) of the same compound?
The value was 2.3–6.8%.

What about the “Transepithelial passage of caerulein, amount at basolateral side, CPF co-administered” value (Caco-2 monolayers [2]; [4]) of the same compound?
The value was 0.45 to 1.36 nmol.

And the “Transepithelial passage of caerulein, amount at basolateral side” value (Caco-2 monolayers [2]; Caco-2 monolayer, apical to basolateral, caerulein alone 100 µM (20 nmol) apical, ELISA, n = 9)?
Its value is 0.06 to 0.20 nmol.

What about the “Half-life in the bloodstream” value [3] of the same compound?
Its value is “up to 45 min”.

With “GIGASILSAGKSALKGLAKGLAEHFAN-NH2 [BLP, bombinin-like peptide 1]” as the compound, how does the “Enhancement of transepithelial passage of bombesin by co-administered BLP” value (Caco-2 monolayers [2]; Caco-2 monolayer, 100 µM both apical, ELISA, n = 9, vs toxin alone) read?
The value was ~ 4.5 times.

For “GFGSFLGKALKAALKIGANALGGSPQQ [CPF, caerulein precursor fragment-3]”, which “Increase in caerulein passage by co-administered CPF, oral multilayer model” value (EpiOral 3D tissues) is on record?
Its value is “nearly fivefold increase”.

And the “Damage to Caco-2 monolayers by SEM, CPF present” value (Caco-2 monolayers [1]; 100 µM CPF + caerulein)?
The value was “abundant intercellular ruptures in the monolayer”.

What about the “Increase in rate of transepithelial passage of caerulein by co-administered CPF” value (Caco-2 monolayers [2]; Caco-2 monolayer, 100 µM both, on average, vs caerulein alone) of the same compound?
The value was “near sevenfold increase”.
